A word on the pEC50: it is the EC50 on a negative log10 scale, so that one unit is a factor of ten. The low end stands for a high EC50, the high end for a low EC50.

pEC50: −log10 of the molar value.

What all share (type): cell-based
For assay [1], the system named is Staphylococcus aureus, MRSA (ATCC 33591). As to the kind of experiment: Antibacterial MIC assay (microbroth dilution, CLSI). Conditions: 35° C., 16-20 hours. The procedure, abridged: (§1)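 Microbroth dilution per CLSI M07-A10/M100-S25 in cation-adjusted Mueller-Hinton broth, with 3% lysed horse blood added for S. pneumoniae. Inoculum from a 0.5 McFarland direct colony suspension, diluted to 5×10^5 CFU/mL in the well. Compounds were 2-fold serially diluted; MIC read against a growth control.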
For orientation: In broth dilution the organism is exposed to a series of concentrations in liquid medium.

Assay [2] relates to Streptococcus pneumoniae (ATCC 49619). The description is as above. The note with it: 3% lysed horse blood, 35° C., 16-20 hours. The method, boiled down: as §1
Assay [3] concerns Wolbachia pipientis in C6/36 cell line. As to the kind of experiment: Anti-Wolbachia high-content assay. Conditions: C6/36 (wAlbB) cells, 7 days at 26° C., 50% reduction of Wolbachia. An excerpt:
C6/36 cells (ECACC #89051705, derived from Aedes albopictus larvae) were infected with Wolbachia pipientis derived from the supernatant of cultured A. albopictus Aa23 cells to create a stably Wolbachia-infected cell line C6/36 (wAlbB). This cell line was subpassaged 6-8 days prior to plating out at a density of 2000 viable cells per well in a 384-well CellCarrier plate suspended in Liebovitz media supplemented with 20% fetal bovine serum, 2% tryptose phosphate broth and 1% non-essential amino acids. Compounds were dissolved and diluted in DMSO, and compound solution was added to each well to provide a final DMSO concentration <1% and a total volume of 100 μL per well. Following 7 days of sterile incubation at 26° C., staining media containing SYTO 11 DNA dye was added to each well. After 15 minutes, all media was removed from each well and fresh media (no stain) was added. Imaging of each well was accomplished using a Perkin Elmer Operetta high-content imaging system. Five fields per well were imaged using a confocal 60× objective with the Fluorescein filter (excitation filter: 460-490 nm; emission filter: 500-550 nm). Images were analyzed using the Perkin Elmer Harmony software to score each intact cell on the basis of texture complexity of the cytoplasm. Full details can be found in: […]. Biomol. Screening, 2015, 20, […]. Compound sample wells were analyzed and normalized (along with the positive controls) against the vehicle (untreated) control to give a percentage reduction of Wolbachia-infected cells. Using the cell number analysis, compounds with a host cell number amounting to less than 50% of the vehicle control were classified as toxic and retested at a reduced compound concentration. Dose-response curves were generated with percentage reduction of Wolbachia-infected cells versus compound concentration, using 5-10 compound serial dilutions. Data were analyzed and compound EC50 is determined using a 4 parameter logistic nonlinear regression model.

Regarding `C[C@@H]1CC[C@@]23CCC(=O)[C@H]2[C@]1(C)[C@H](OC(=O)COc1ccc2c(c1F)B(O)OC2)C[C@@]1(C)CCC(=O)O[C@H]1[C@@H]3C` [Compound 1, (4aR,6R,7R,7aR,10aS,11R,11aS,14R)-4a,7,11,14-tetramethyl-2,8-dioxododecahydro-2H-7,10a-propanocyclopenta[6,7]cycloocta[1,2-b]pyran-6-yl2-((7-fluoro-1-hydroxy-1,3-dihydrobenzo[c][1,2]oxaborol-6-yl)oxy)acetate], in assay [1], the “MIC Staphylococcus aureus, MRSA (ATCC 33591)” value (shortened to “MIC Staphylococcus aureus”) is on record as “B (0.5-2 is B)”. Moreover, in assay [2], the “MIC Streptococcus pneumoniae (ATCC 49619)” value (“MIC Streptococcus pneumoniae” for short) is given as “C (4-32 is C)”. The compound further had a pEC50 in assay [3] of less than 6.00.

Regarding `C[C@@H]1CC[C@@]23CCC(=O)[C@H]2[C@]1(C)[C@H](OC(=O)COc1ccc2c(c1F)B(O)OC2)C[C@@](C)(CCC(N)=O)[C@@H](O)[C@@H]3C` [Compound 2, (3aR,4R,5R,7R,8S,9R,9aS,12R)-7-(3-amino-3-oxopropyl)-8-hydroxy-4,7,9,12-tetramethyl-3-oxodecahydro-4,9a-propanocyclopenta[8]annulen-5-yl2-((7-fluoro-1-hydroxy-1,3-dihydrobenzo[c][1,2]oxaborol-6-yl)oxy)acetate], the “MIC Staphylococcus aureus” value in assay [1] is reported as “C (4-32 is C)”. Besides, the “MIC Streptococcus pneumoniae” value in assay [2] was “C (4-32 is C)”. The same compound showed a pEC50 in assay [3] of less than 6.00.

On to `CNC(=O)CC[C@]1(C)C[C@@H](OC(=O)COc2ccc3c(c2F)B(O)OC3)[C@]2(C)[C@H](C)CC[C@]3(CCC(=O)[C@H]32)[C@@H](C)[C@@H]1O` [Compound 3, (3aR,4R,5R,7R,8S,9R,9aS,12R)-8-hydroxy-4,7,9,12-tetramethyl-7-(3-(methylamino)-3-oxopropyl)-3-oxodecahydro-4,9a-propanocyclopenta[8]annulen-5-yl2-((7-fluoro-1-hydroxy-1,3-dihydrobenzo[c][1,2]oxaborol-6-yl)oxy)acetate], for which the “MIC Staphylococcus aureus” value in assay [1] is “B (0.5-2 is B)”. The “MIC Streptococcus pneumoniae” value in assay [2] is on record as “B (0.5-2 is B)”. In assay [3], this compound had a pEC50 of less than 6.00.

With `CCNC(=O)CC[C@]1(C)C[C@@H](OC(=O)COc2ccc3c(c2F)B(O)OC3)[C@]2(C)[C@H](C)CC[C@]3(CCC(=O)[C@H]32)[C@@H](C)[C@@H]1O` [Compound 4, (3aR,4R,5R,7R,8S,9R,9aS,12R)-7-(3-(ethylamino)-3-oxopropyl)-8-hydroxy-4,7,9,12-tetramethyl-3-oxodecahydro-4,9a-propanocyclopenta[8]annulen-5-yl2-((7-fluoro-1-hydroxy-1,3-dihydrobenzo[c][1,2]oxaborol-6-yl)oxy)acetate], the “MIC Staphylococcus aureus” value in assay [1] is on record as “B (0.5-2 is B)”. For the same compound, in assay [2], the “MIC Streptococcus pneumoniae” value is given as “B (0.5-2 is B)”. Moreover, the pEC50 in assay [3] is 6.55.

For `CCCCNC(=O)CC[C@]1(C)C[C@@H](OC(=O)COc2ccc3c(c2F)B(O)OC3)[C@]2(C)[C@H](C)CC[C@]3(CCC(=O)[C@H]32)[C@@H](C)[C@@H]1O` [Compound 5, (3aR,4R,5R,7R,8S,9R,9aS,12R)-7-(3-(butylamino)-3-oxopropyl)-8-hydroxy-4,7,9,12-tetramethyl-3-oxodecahydro-4,9a-propanocyclopenta[8]annulen-5-yl2-((7-fluoro-1-hydroxy-1,3-dihydrobenzo[c][1,2]oxaborol-6-yl)oxy)acetate], the “MIC Staphylococcus aureus” value in assay [1] is on record as “B (0.5-2 is B)”. For the same compound, the “MIC Streptococcus pneumoniae” value in assay [2] was “B (0.5-2 is B)”. Further, the pEC50 in assay [3] was 6.52.

Take `C[C@@H]1CC[C@@]23CCC(=O)[C@H]2[C@]1(C)[C@H](OC(=O)COc1ccc2c(c1F)B(O)OC2)C[C@@](C)(CCC(=O)NC1CC1)[C@@H](O)[C@@H]3C` [Compound 6, (3aR,4R,5R,7R,8S,9R,9aS,12R)-7-(3-(cyclopropylamino)-3-oxopropyl)-8-hydroxy-4,7,9,12-tetramethyl-3-oxodecahydro-4,9a-propanocyclopenta[8]annulen-5-yl2-((7-fluoro-1-hydroxy-1,3-dihydrobenzo[c][1,2]oxaborol-6-yl)oxy)acetate]: the “MIC Staphylococcus aureus” value in assay [1] is listed as “B (0.5-2 is B)”. The “MIC Streptococcus pneumoniae” value in assay [2] is on record as “B (0.5-2 is B)”. For the same compound, the pEC50 in assay [3] is 6.41.
